Data taken from patent US12357711B2, “PSMA binding dual mode radiotracer and therapeutic” (Technische Universität München, priority 2019, dated 2025).

System: SCID mice
Assay: Preclinical dosimetry from biodistribution in mice, extrapolated to 70-kg Standard Adult (OLINDA/EXM 1.0)
Assay type: in vivo
Conditions: 1.0 h bladder voiding interval
Procedure: 3-5 mice were injected per timepoint with a mean 25.6±3.6 MBq of 18F-rhPSMA-7 and 28.5±4.8 MBq of 18F-rhPSMA-7.3, respectively. Mice, severe combined immunodeficiency (SCID) were used for the experiments.
Mice were sacrificed at the following timepoints: • ^18F-rhPSMA-7: 10, 20, 40, 60, 120 and 180 minutes after administration. • ^18F-rhPSMA-7.3: 10, 60, 120, 180 and 300 minutes after administration.
Urine, blood, heart, lung, spleen, pancreas, liver, stomach (emptied), small intestine (emptied), large intestine (emptied), kidneys, bladder, testis, fat, muscle (partial, femoral), femur, tail and brain. Urine was collected with a pipette in the CO2 gas chamber. In case of missing urination in the chamber the bladder was aspirated with an insulin syringe. Blood was withdrawn instantly after sacrifice with an insulin syringe from the heart. All other tissues and organs were dissected and transferred directly in plastic containers.
The counting rates of measurement samples were automatically corrected for decay. The radioactivity distribution ratios (unit: percentage of the injected dose (% ID) in the measurement samples were determined using the equation below. The sum of the counting rates from all measurement samples obtained from one mouse was designated as the counting rate for administrated radioactivity.
The radioactivity distribution ratio per unit weight of the measurement sample (unit: % ID/g) excluding urine and feces samples was determined by using the equation below. The weight of the measurement sample was determined by subtraction of the empty measurement container from the container including the sample.
For consistency of statistical calculations for each radiotracer the same number of time-points for ^18F-rhPSMA-7 and ^18F-rhPSMA-7.3 was used. Therefore, for ^18F-rhPSMA-7 the 10 min and 20 min time points were combined creating a 15 min endpoint.
The time-integral of activity for the accumulation in the significant source organs (AUCs) were generated both with numerical integration and physical decay according to J Juan et al., Journal of Pharmaceutical Sciences, 1993, 82:762-763.
In brief, to calculate a human dosimetry from the biodistribution in the mice, an extrapolation was necessary to account for the differences between the animals and humans. Normal-organ radiation doses were estimated for the 70-kg Standard Adult anatomic model using time-depending organ activity concentrations (in percent of the injected dose per gram, % ID/g) and total-body activities measured in the biodistribution studies in mice.
Tissue activity concentrations in mice were converted to tissue fractional activities in the 70-kg Standard Adult using the relative fractional organ masses in the Standard Adult and the “standard” 25-gramm mouse. Time-dependent total-body activity was fit to an exponential function and the difference between the injected activity and the total-body activity was assumed to be excreted to the urine because activity concentrations in the liver and GI tracer were low at all time points studied.
Organ residence time was calculated by numerical integration using the trapezoidal rule and the rest-of-body ^18F residence times was calculated as the difference between the total-body residence time and the sum of the organ and urine residence times. The bladder contents residence time was estimated using the dynamic voiding model in the OLINDA/EXM 1.0 dosimetry software. Finally, the Standard Adult mean organ dose equivalents (in mSv/MBq) and effective dose (also in mSv/MBq) were then calculated using OLIN DA/EXM 1.0.
Final calculation of radiation absorbed dose and dosimetry from biodistribution in mice: The tissues or organs in which a significant accumulation of radioactivity occurs (i.e., source organ) were kidney, spleen, lung, liver and heart. With respect to activity accumulation and clearance, a rapid clearance from blood and clearance to urine but relatively slow build-up in kidney was found.

CC(C)(C)[Si](F)(c1ccc(C(=O)NC[C@@H](NC(=O)CC[C@@H](C(=O)O)N2CCN(CC(=O)[O-])CCN(CC(=O)[O-])CCN(CC(=O)[O-])CC2)C(=O)N[C@H](CCCCNC(=O)CCC(=O)NCCC[C@@H](NC(=O)CC[C@H](NC(=O)N[C@@H](CCC(=O)O)C(=O)O)C(=O)O)C(=O)O)C(=O)O)cc1)C(C)(C)C.[Ga+3] [rhPSMA7.3, [^19F][^natGa]D-Dap-S-DOTAGA-rhPSMA7]
Adrenals ED Cont.: 5.46E−05 mSv/MBq | Adrenals EDE Cont.: 0.00E000 mSv/MBq | Adrenals dose Alpha: 0.00E000 mSv/MBq | Adrenals dose Beta: 3.12E−03 mSv/MBq | Adrenals dose Photon: 7.79E−03 mSv/MBq | Adrenals dose Total: 1.09E−02 mSv/MBq | Brain ED Cont.: 3.59E−05 mSv/MBq | Brain EDE Cont.: 0.00E000 mSv/MBq | Brain dose Alpha: 0.00E000 mSv/MBq | Brain dose Beta: 3.12E−03 mSv/MBq | Brain dose Photon: 4.06E−03 mSv/MBq | Brain dose Total: 7.18E−03 mSv/MBq | Breasts ED Cont.: 3.32E−04 mSv/MBq | Breasts EDE Cont.: 9.97E−04 mSv/MBq | Breasts dose Alpha: 0.00E000 mSv/MBq | Breasts dose Beta: 3.12E−03 mSv/MBq | Breasts dose Photon: 3.53E−03 mSv/MBq | Breasts dose Total: 6.65E−03 mSv/MBq | Gallbladder Wall ED Cont.: 0.00E000 mSv/MBq | Gallbladder Wall EDE Cont.: 0.00E000 mSv/MBq | Gallbladder Wall dose Alpha: 0.00E000 mSv/MBq | Gallbladder Wall dose Beta: 3.12E−03 mSv/MBq | Gallbladder Wall dose Photon: 7.11E−03 mSv/MBq | Gallbladder Wall dose Total: 1.02E−02 mSv/MBq | Heart Wall ED Cont.: 0.00E000 mSv/MBq | Heart Wall EDE Cont.: 0.00E000 mSv/MBq | Heart Wall dose Alpha: 0.00E000 mSv/MBq | Heart Wall dose Beta: 1.32E−03 mSv/MBq | Heart Wall dose Photon: 5.36E−03 mSv/MBq | Heart Wall dose Total: 6.68E−03 mSv/MBq | Kidneys ED Cont.: 3.58E−04 mSv/MBq | Kidneys EDE Cont.: 4.29E−03 mSv/MBq | Kidneys dose Alpha: 0.00E000 mSv/MBq | Kidneys dose Beta: 5.11E−02 mSv/MBq | Kidneys dose Photon: 2.04E−02 mSv/MBq | Kidneys dose Total: 7.16E−02 mSv/MBq | LLI Wall ED Cont.: 1.39E−03 mSv/MBq | LLI Wall EDE Cont.: 6.94E−04 mSv/MBq | LLI Wall dose Alpha: 0.00E000 mSv/MBq | LLI Wall dose Beta: 3.12E−03 mSv/MBq | LLI Wall dose Photon: 8.45E−03 mSv/MBq | LLI Wall dose Total: 1.16E−02 mSv/MBq | Liver ED Cont.: 2.92E−04 mSv/MBq | Liver EDE Cont.: 0.00E000 mSv/MBq | Liver dose Alpha: 0.00E000 mSv/MBq | Liver dose Beta: 9.70E−04 mSv/MBq | Liver dose Photon: 4.87E−03 mSv/MBq | Liver dose Total: 5.84E−03 mSv/MBq | Lungs ED Cont.: 7.90E−04 mSv/MBq | Lungs EDE Cont.: 7.90E−04 mSv/MBq | Lungs dose Alpha: 0.00E000 mSv/MBq | Lungs dose Beta: 1.95E−03 mSv/MBq | Lungs dose Photon: 4.63E−03 mSv/MBq | Lungs dose Total: 6.58E−03 mSv/MBq | Muscle ED Cont.: 4.30E−05 mSv/MBq | Muscle EDE Cont.: 0.00E000 mSv/MBq | Muscle dose Alpha: 0.00E000 mSv/MBq | Muscle dose Beta: 3.12E−03 mSv/MBq | Muscle dose Photon: 5.47E−03 mSv/MBq | Muscle dose Total: 8.59E−03 mSv/MBq | Osteogenic Cells ED Cont.: 1.28E−04 mSv/MBq | Osteogenic Cells EDE Cont.: 3.84E−04 mSv/MBq | Osteogenic Cells dose Alpha: 0.00E000 mSv/MBq | Osteogenic Cells dose Beta: 6.70E−03 mSv/MBq | Osteogenic Cells dose Photon: 6.11E−03 mSv/MBq | Osteogenic Cells dose Total: 1.28E−02 mSv/MBq | Ovaries ED Cont.: 2.35E−03 mSv/MBq | Ovaries EDE Cont.: 2.93E−03 mSv/MBq | Ovaries dose Alpha: 0.00E000 mSv/MBq | Ovaries dose Beta: 3.12E−03 mSv/MBq | Ovaries dose Photon: 8.61E−03 mSv/MBq | Ovaries dose Total: 1.17E−02 mSv/MBq | Pancreas ED Cont.: 5.62E−05 mSv/MBq | Pancreas EDE Cont.: 0.00E000 mSv/MBq | Pancreas dose Alpha: 0.00E000 mSv/MBq | Pancreas dose Beta: 3.12E−03 mSv/MBq | Pancreas dose Photon: 8.12E−03 mSv/MBq | Pancreas dose Total: 1.12E−02 mSv/MBq | Red Marrow ED Cont.: 9.97E−04 mSv/MBq | Red Marrow EDE Cont.: 9.97E−04 mSv/MBq | Red Marrow dose Alpha: 0.00E000 mSv/MBq | Red Marrow dose Beta: 2.22E−03 mSv/MBq | Red Marrow dose Photon: 6.09E−03 mSv/MBq | Red Marrow dose Total: 8.31E−03 mSv/MBq | Skin ED Cont.: 6.57E−05 mSv/MBq | Skin EDE Cont.: 0.00E000 mSv/MBq | Skin dose Alpha: 0.00E000 mSv/MBq | Skin dose Beta: 3.12E−03 mSv/MBq | Skin dose Photon: 3.45E−03 mSv/MBq | Skin dose Total: 6.57E−03 mSv/MBq | Small Intestine ED Cont.: 5.45E−05 mSv/MBq | Small Intestine EDE Cont.: 0.00E000 mSv/MBq | Small Intestine dose Alpha: 0.00E000 mSv/MBq | Small Intestine dose Beta: 3.12E−03 mSv/MBq | Small Intestine dose Photon: 7.78E−03 mSv/MBq | Small Intestine dose Total: 1.09E−02 mSv/MBq | Spleen ED Cont.: 1.33E−04 mSv/MBq | Spleen EDE Cont.: 1.59E−03 mSv/MBq | Spleen dose Alpha: 0.00E000 mSv/MBq | Spleen dose Beta: 1.52E−02 mSv/MBq | Spleen dose Photon: 1.14E−02 mSv/MBq | Spleen dose Total: 2.66E−02 mSv/MBq | Stomach Wall ED Cont.: 1.19E−03 mSv/MBq | Stomach Wall EDE Cont.: 0.00E000 mSv/MBq | Stomach Wall dose Alpha: 0.00E000 mSv/MBq | Stomach Wall dose Beta: 3.12E−03 mSv/MBq | Stomach Wall dose Photon: 6.80E−03 mSv/MBq | Stomach Wall dose Total: 9.92E−03 mSv/MBq | Testes ED Cont.: 0.00E000 mSv/MBq | Testes EDE Cont.: 0.00E000 mSv/MBq | Testes dose Alpha: 0.00E000 mSv/MBq | Testes dose Beta: 3.12E−03 mSv/MBq | Testes dose Photon: 6.08E−03 mSv/MBq | Testes dose Total: 9.20E−03 mSv/MBq | Thymus ED Cont.: 4.09E−05 mSv/MBq | Thymus EDE Cont.: 0.00E000 mSv/MBq | Thymus dose Alpha: 0.00E000 mSv/MBq | Thymus dose Beta: 3.12E−03 mSv/MBq | Thymus dose Photon: 5.06E−03 mSv/MBq | Thymus dose Total: 8.18E−03 mSv/MBq | Thyroid ED Cont.: 4.13E−04 mSv/MBq | Thyroid EDE Cont.: 2.48E−04 mSv/MBq | Thyroid dose Alpha: 0.00E000 mSv/MBq | Thyroid dose Beta: 3.12E−03 mSv/MBq | Thyroid dose Photon: 5.15E−03 mSv/MBq | Thyroid dose Total: 8.27E−03 mSv/MBq | Total Body ED Cont.: 0.00E000 mSv/MBq | Total Body EDE Cont.: 0.00E000 mSv/MBq | Total Body dose Alpha: 0.00E000 mSv/MBq | Total Body dose Beta: 3.45E−03 mSv/MBq | Total Body dose Photon: 5.42E−03 mSv/MBq | Total Body dose Total: 8.87E−03 mSv/MBq | ULI Wall ED Cont.: 5.23E−05 mSv/MBq | ULI Wall EDE Cont.: 0.00E000 mSv/MBq | ULI Wall dose Alpha: 0.00E000 mSv/MBq | ULI Wall dose Beta: 3.12E−03 mSv/MBq | ULI Wall dose Photon: 7.33E−03 mSv/MBq | ULI Wall dose Total: 1.05E−02 mSv/MBq | Urinary Bladder Wall ED Cont.: 3.92E−03 mSv/MBq | Urinary Bladder Wall EDE Cont.: 4.70E−03 mSv/MBq | Urinary Bladder Wall dose Alpha: 0.00E000 mSv/MBq | Urinary Bladder Wall dose Beta: 5.18E−02 mSv/MBq | Urinary Bladder Wall dose Photon: 2.66E−02 mSv/MBq | Urinary Bladder Wall dose Total: 7.84E−02 mSv/MBq | Uterus ED Cont.: 7.13E−05 mSv/MBq | Uterus EDE Cont.: 8.55E−04 mSv/MBq | Uterus dose Alpha: 0.00E000 mSv/MBq | Uterus dose Beta: 3.12E−03 mSv/MBq | Uterus dose Photon: 1.11E−02 mSv/MBq | Uterus dose Total: 1.43E−02 mSv/MBq
